Experimental data taken from ChEMBL document CHEMBL3885881, “DrugMatrix”.

Species: Rattus norvegicus
Assay: DrugMatrix - Regimen: Daily Repeat
Type: toxicity, organism-based, Sprague-Dawley
Parameters: regimen Daily Repeat, gender Male, age 6-8 weeks
Conditions: in vivo, po, route oral GAVAGE, vehicle .5 % CMC; for BASOPHIL / EOSINOPHIL / ERYTHROCYTE COUNT / HEMATOCRIT / HEMOGLOBIN / LEUKOCYTE COUNT / LYMPHOCYTE / MEAN CORPUSCULAR HEMOGLOBIN / MEAN CORPUSCULAR HEMOGLOBIN CONCENTRATION / MEAN CORPUSCULAR VOLUME / MONOCYTE / NEUTROPHIL / PLATELET COUNT: tissue Blood; for ALANINE AMINOTRANSFERASE / ALBUMIN / ALKALINE PHOSPHATASE / ASPARTATE AMINOTRANSFERASE / BLOOD UREA NITROGEN / CHLORIDE / CHOLESTEROL / CREATINE PHOSPHOKINASE / CREATININE / GLUCOSE / PHOSPHORUS / POTASSIUM / SODIUM / TOTAL PROTEIN: tissue Plasma
[1] = 0 mg/kg, 72 h, dose level Control, time 3 day
[2] = 0 mg/kg, 120 h, dose level Control, time 5 day
[3] = 28 mg/kg, 72 h, dose level Low, time 3 day
[4] = 28 mg/kg, 120 h, dose level Low, time 5 day
[5] = 2000 mg/kg, 72 h, dose level High, time 3 day
[6] = 2000 mg/kg, 120 h, dose level High, time 5 day

CCN1CCN(c2cc3c(cc2F)c(=O)c(C(=O)O)cn3C2CC2)CC1 [ENROFLOXACIN]
BASOPHIL [1]: 0%
EOSINOPHIL [1]: 0.4%
ERYTHROCYTE COUNT [1]: 6.43 x10E6/uL
HEMATOCRIT [1]: 37.36%
HEMOGLOBIN [1]: 13.98 G/DL
LEUKOCYTE COUNT [1]: 13 x10E3/uL
LYMPHOCYTE [1]: 81.4%
MEAN CORPUSCULAR HEMOGLOBIN [1]: 21.9 pg
MEAN CORPUSCULAR HEMOGLOBIN CONCENTRATION [1]: 37.4 G/DL
MEAN CORPUSCULAR VOLUME [1]: 58.52 fL
MONOCYTE [1]: 0.4%
NEUTROPHIL [1]: 18%
PLATELET COUNT [1]: 1386 x10E3/uL
ALANINE AMINOTRANSFERASE [1]: 39.33 u/L
ALBUMIN [1]: 3.57 G/DL
ALKALINE PHOSPHATASE [1]: 283.83 u/L
ASPARTATE AMINOTRANSFERASE [1]: 69.5 u/L
BLOOD UREA NITROGEN [1]: 14.83 mg/dL
CHLORIDE [1]: 107.33 MEQ/L
CHOLESTEROL [1]: 75.17 mg/dL
CREATINE PHOSPHOKINASE [1]: 107.67 u/L
CREATININE [1]: 0.48 mg/dL
GLUCOSE [1]: 172.5 mg/dL
PHOSPHORUS [1]: 10.48 mg/dL
POTASSIUM [1]: 6.9 MEQ/L
SODIUM [1]: 152.33 MEQ/L
TOTAL PROTEIN [1]: 5.9 G/DL
BASOPHIL [2]: 0%
EOSINOPHIL [2]: 0.4%
ERYTHROCYTE COUNT [2]: 6.96 x10E6/uL
HEMATOCRIT [2]: 41.12%
HEMOGLOBIN [2]: 15.24 G/DL
LEUKOCYTE COUNT [2]: 11.06 x10E3/uL
LYMPHOCYTE [2]: 88.6%
MEAN CORPUSCULAR HEMOGLOBIN [2]: 21.96 pg
MEAN CORPUSCULAR HEMOGLOBIN CONCENTRATION [2]: 37.1 G/DL
MEAN CORPUSCULAR VOLUME [2]: 59.12 fL
MONOCYTE [2]: 0.2%
NEUTROPHIL [2]: 10.8%
PLATELET COUNT [2]: 1155.8 x10E3/uL
ALANINE AMINOTRANSFERASE [2]: 36.33 u/L
ALBUMIN [2]: 3.72 G/DL
ALKALINE PHOSPHATASE [2]: 340.33 u/L
ASPARTATE AMINOTRANSFERASE [2]: 68.33 u/L
BLOOD UREA NITROGEN [2]: 15 mg/dL
CHLORIDE [2]: 108.17 MEQ/L
CHOLESTEROL [2]: 74.67 mg/dL
CREATINE PHOSPHOKINASE [2]: 110.67 u/L
CREATININE [2]: 0.47 mg/dL
GLUCOSE [2]: 171.33 mg/dL
PHOSPHORUS [2]: 10.05 mg/dL
POTASSIUM [2]: 6.7 MEQ/L
SODIUM [2]: 155.5 MEQ/L
TOTAL PROTEIN [2]: 6.33 G/DL
BASOPHIL [3]: 0%
EOSINOPHIL [3]: 0.33%
ERYTHROCYTE COUNT [3]: 6.63 x10E6/uL
HEMATOCRIT [3]: 40.9%
HEMOGLOBIN [3]: 15.27 G/DL
LEUKOCYTE COUNT [3]: 15.3 x10E3/uL
LYMPHOCYTE [3]: 87.67%
MEAN CORPUSCULAR HEMOGLOBIN [3]: 23.03 pg
MEAN CORPUSCULAR HEMOGLOBIN CONCENTRATION [3]: 37.33 G/DL
MEAN CORPUSCULAR VOLUME [3]: 61.73 fL
MONOCYTE [3]: 0.33%
NEUTROPHIL [3]: 11.67%
PLATELET COUNT [3]: 1320.33 x10E3/uL
ALANINE AMINOTRANSFERASE [3]: 35.67 u/L
ALBUMIN [3]: 3.53 G/DL
ALKALINE PHOSPHATASE [3]: 256 u/L
ASPARTATE AMINOTRANSFERASE [3]: 57 u/L
BLOOD UREA NITROGEN [3]: 14 mg/dL
CHLORIDE [3]: 106.67 MEQ/L
CHOLESTEROL [3]: 68.67 mg/dL
CREATINE PHOSPHOKINASE [3]: 123 u/L
CREATININE [3]: 0.5 mg/dL
GLUCOSE [3]: 170 mg/dL
PHOSPHORUS [3]: 11.27 mg/dL
POTASSIUM [3]: 6.83 MEQ/L
SODIUM [3]: 151.67 MEQ/L
TOTAL PROTEIN [3]: 5.93 G/DL
BASOPHIL [4]: 0%
EOSINOPHIL [4]: 0.67%
ERYTHROCYTE COUNT [4]: 7.38 x10E6/uL
HEMATOCRIT [4]: 43.67%
HEMOGLOBIN [4]: 15.73 G/DL
LEUKOCYTE COUNT [4]: 15.77 x10E3/uL
LYMPHOCYTE [4]: 91%
MEAN CORPUSCULAR HEMOGLOBIN [4]: 21.23 pg
MEAN CORPUSCULAR HEMOGLOBIN CONCENTRATION [4]: 35.97 G/DL
MEAN CORPUSCULAR VOLUME [4]: 58.97 fL
MONOCYTE [4]: 0%
NEUTROPHIL [4]: 8.33%
PLATELET COUNT [4]: 1186 x10E3/uL
ALANINE AMINOTRANSFERASE [4]: 39 u/L
ALBUMIN [4]: 3.77 G/DL
ALKALINE PHOSPHATASE [4]: 351 u/L
ASPARTATE AMINOTRANSFERASE [4]: 67.67 u/L
BLOOD UREA NITROGEN [4]: 13.67 mg/dL
CHLORIDE [4]: 115 MEQ/L
CHOLESTEROL [4]: 67.33 mg/dL
CREATINE PHOSPHOKINASE [4]: 110 u/L
CREATININE [4]: 0.6 mg/dL
GLUCOSE [4]: 194.33 mg/dL
PHOSPHORUS [4]: 10 mg/dL
POTASSIUM [4]: 6.77 MEQ/L
SODIUM [4]: 161.67 MEQ/L
TOTAL PROTEIN [4]: 6.37 G/DL
BASOPHIL [5]: 0%
EOSINOPHIL [5]: 0%
ERYTHROCYTE COUNT [5]: 6.71 x10E6/uL
HEMATOCRIT [5]: 40.2%
HEMOGLOBIN [5]: 15 G/DL
LEUKOCYTE COUNT [5]: 9.93 x10E3/uL
LYMPHOCYTE [5]: 94%
MEAN CORPUSCULAR HEMOGLOBIN [5]: 22.37 pg
MEAN CORPUSCULAR HEMOGLOBIN CONCENTRATION [5]: 37.33 G/DL
MEAN CORPUSCULAR VOLUME [5]: 59.87 fL
MONOCYTE [5]: 0.33%
NEUTROPHIL [5]: 5.67%
PLATELET COUNT [5]: 1314.33 x10E3/uL
ALANINE AMINOTRANSFERASE [5]: 34 u/L
ALBUMIN [5]: 3.4 G/DL
ALKALINE PHOSPHATASE [5]: 233.33 u/L
ASPARTATE AMINOTRANSFERASE [5]: 47.33 u/L
BLOOD UREA NITROGEN [5]: 13.33 mg/dL
CHLORIDE [5]: 107.67 MEQ/L
CHOLESTEROL [5]: 72.67 mg/dL
CREATINE PHOSPHOKINASE [5]: 92.33 u/L
CREATININE [5]: 0.67 mg/dL
GLUCOSE [5]: 183.33 mg/dL
PHOSPHORUS [5]: 11.5 mg/dL
POTASSIUM [5]: 7.2 MEQ/L
SODIUM [5]: 152.67 MEQ/L
TOTAL PROTEIN [5]: 5.53 G/DL
BASOPHIL [6]: 0%
EOSINOPHIL [6]: 0%
ERYTHROCYTE COUNT [6]: 7.19 x10E6/uL
HEMATOCRIT [6]: 42.1%
HEMOGLOBIN [6]: 14.8 G/DL
LEUKOCYTE COUNT [6]: 14.2 x10E3/uL
LYMPHOCYTE [6]: 97.67%
MEAN CORPUSCULAR HEMOGLOBIN [6]: 20.57 pg
MEAN CORPUSCULAR HEMOGLOBIN CONCENTRATION [6]: 35.17 G/DL
MEAN CORPUSCULAR VOLUME [6]: 58.63 fL
MONOCYTE [6]: 0%
NEUTROPHIL [6]: 2.33%
PLATELET COUNT [6]: 1312.33 x10E3/uL
ALANINE AMINOTRANSFERASE [6]: 39 u/L
ALBUMIN [6]: 3.43 G/DL
ALKALINE PHOSPHATASE [6]: 266 u/L
ASPARTATE AMINOTRANSFERASE [6]: 50 u/L
BLOOD UREA NITROGEN [6]: 11.67 mg/dL
CHLORIDE [6]: 104 MEQ/L
CHOLESTEROL [6]: 56 mg/dL
CREATINE PHOSPHOKINASE [6]: 95.33 u/L
CREATININE [6]: 0.6 mg/dL
GLUCOSE [6]: 152.67 mg/dL
PHOSPHORUS [6]: 11.4 mg/dL
POTASSIUM [6]: 6.03 MEQ/L
SODIUM [6]: 150.67 MEQ/L
TOTAL PROTEIN [6]: 5.53 G/DL
